Results on two molecules are retold here after patent US20240360194A1, “New Peptides as Potent and Selective GIP Receptor Agonists” (Sanofi, priority 2021, published 2024).

By EC50 is commonly meant the concentration needed to bring the measured effect to its halfway point. A word on the Emax: it is the greatest response seen or fitted, relative to the assay's reference. In general, IC50 refers to the concentration needed to halve the response being measured.

In data set [1] the target is T1, human GIP receptor (Homo sapiens, UniProt P48546).
T1 construct: human adipocytes endogenously expressing the human GIP receptor; host or cells: human preadipocytes (Lonza) differentiated to adipocytes
T1 sequence (P48546 22-466): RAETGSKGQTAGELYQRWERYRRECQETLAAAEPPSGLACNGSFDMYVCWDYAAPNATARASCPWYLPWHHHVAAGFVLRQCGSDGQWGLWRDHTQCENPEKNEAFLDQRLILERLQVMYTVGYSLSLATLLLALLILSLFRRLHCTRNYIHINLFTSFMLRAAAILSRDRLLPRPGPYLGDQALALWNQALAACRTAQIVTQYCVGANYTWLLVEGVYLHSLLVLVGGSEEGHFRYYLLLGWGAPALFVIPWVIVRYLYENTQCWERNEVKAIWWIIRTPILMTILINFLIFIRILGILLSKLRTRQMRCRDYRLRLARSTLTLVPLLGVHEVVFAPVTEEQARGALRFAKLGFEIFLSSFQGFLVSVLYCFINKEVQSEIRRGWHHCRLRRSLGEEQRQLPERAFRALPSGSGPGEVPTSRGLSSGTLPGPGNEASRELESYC
Description: In vitro cellular cAMP assay for GIP receptor efficacy (human adipocytes). It counts as cell-based. The method in brief: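 cAMP is read by HTRF (665/620 nm ratio, 1 h after reagents in lysis buffer) following 30 min compound exposure at room temperature. Cells are human preadipocyte-derived adipocytes, differentiated 6 days with insulin, dexamethasone, IBMX (200 μM), PPARγ agonist and L-thyroxine, seeded 5000 per well.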
In general terms: Cyclic AMP is a second messenger, typically raised through Gs and lowered through Gi signalling.

The target of data set [2] is T2, human GLP-1 receptor (hGLP-1R) (Homo sapiens, UniProt P43220). Description: Binding assay, displacement of [125I]GLP-1 from HEK-293 membranes over-expressing GLP-1R (SPA). Conditions: [125I]GLP-1 displacement. The protocol: (1) Preparation of Membranes from HEK-293 Cells Over-Expressing GIPR or GLP-1R
HEK-293 cells recombinantly over-expressing GIPR or GLP-1R were grown to 50% confluency, washed with warm 1×PBS (Gibco) and detached in HEPES/EDTA-buffer (100 mM HEPES pH 7.5, 5 mM EDTA). Cells were harvested by centrifugation at 4° C. and 3000×g and the pellets were stored at −80° C. until further processing.
After thawing on ice, pellets were resuspended in HEPES/EDTA-buffer and homogenized on ice for 1 min using Ultra-Turray T25. After subsequent sonification the cell debris was removed by centrifugation at 1000×g and 4° C. Supernatants were then ultra-centrifuged at 100000×g and 4° C. under vacuum for 30 min. Pellets were resuspended in HEPES/EDTA/NaCl-buffer (20 mM HEPES, 1 mM EDTA, 150 mM NaCl; add 1 Complete Mini Protease inhibitor cocktail to 10 ml buffer) and protein content was determined via BCA-Protein assay.
(2) Measurement of Binding Activity of Test Compounds to Human GIPR or GLP-1R
In general terms: Displacement assays read how much labelled ligand stays bound in the presence of the test substance.

The target of data set [3] is T2, human GLP-1 receptor (hGLP-1R). Description: In vitro cellular cAMP assay for GLP-1 receptor efficacy (HEK-293 cell line over-expressing receptor). As to conditions: HEK-293, 0.1% BSA. It counts as cell-based.
Data set [4] has as its target T3, human GIP receptor (hGIPR) (Homo sapiens, UniProt P48546).
T3 sequence (P48546 22-466): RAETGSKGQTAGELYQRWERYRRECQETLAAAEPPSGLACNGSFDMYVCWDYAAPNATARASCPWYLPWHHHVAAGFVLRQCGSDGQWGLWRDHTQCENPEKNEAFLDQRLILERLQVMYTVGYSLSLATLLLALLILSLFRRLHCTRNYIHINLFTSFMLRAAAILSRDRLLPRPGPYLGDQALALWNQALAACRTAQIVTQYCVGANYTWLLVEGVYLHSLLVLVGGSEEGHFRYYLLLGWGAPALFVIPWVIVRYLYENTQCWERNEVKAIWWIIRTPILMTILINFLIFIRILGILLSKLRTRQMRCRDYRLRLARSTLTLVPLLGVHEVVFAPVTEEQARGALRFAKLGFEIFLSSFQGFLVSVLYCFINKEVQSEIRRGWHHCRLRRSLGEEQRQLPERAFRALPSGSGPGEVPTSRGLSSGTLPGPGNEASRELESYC
Description: Binding assay, displacement of [125I]GIP from HEK-293 membranes over-expressing GIPR (SPA). As to conditions: [125I]GIP displacement. An outline of the steps:
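Membranes from HEK-293 cells over-expressing human GIPR or GLP-1R, isolated by homogenising, sonicating and ultracentrifuging at 100000×g into HEPES/EDTA/NaCl buffer with protease inhibitors, were used for binding.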

Data set [5] can be described thus: Solubility assessment (UHPLC-UV of supernatant, target 10 mg/ml). It counts as physicochemical. As to conditions: read-out: Soluble amount. The method in brief:
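Peptides at 10 mg/ml (purity-corrected) in 100 mM phosphate pH 7.4, optionally with 2.7 mg/ml m-cresol; gentle agitation 1 h, then 5° C. overnight (24 h). Supernatant after 15 min centrifugation at 2500 RCF quantified by UHPLC-UV, with sequence-based extinction coefficients.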

The target of data set [6] is T3, human GIP receptor (hGIPR). Description: In vitro cellular cAMP assay for GIP receptor efficacy (HEK-293 cell line over-expressing receptor). It counts as cell-based. As to conditions: EC50 hGIPR 0.1% BSA, HEK-293, 0.1% BSA.
Data set [7] concerns the target T4, human GIP receptor (human, UniProt P48546 22-466).
T4 sequence (looked up): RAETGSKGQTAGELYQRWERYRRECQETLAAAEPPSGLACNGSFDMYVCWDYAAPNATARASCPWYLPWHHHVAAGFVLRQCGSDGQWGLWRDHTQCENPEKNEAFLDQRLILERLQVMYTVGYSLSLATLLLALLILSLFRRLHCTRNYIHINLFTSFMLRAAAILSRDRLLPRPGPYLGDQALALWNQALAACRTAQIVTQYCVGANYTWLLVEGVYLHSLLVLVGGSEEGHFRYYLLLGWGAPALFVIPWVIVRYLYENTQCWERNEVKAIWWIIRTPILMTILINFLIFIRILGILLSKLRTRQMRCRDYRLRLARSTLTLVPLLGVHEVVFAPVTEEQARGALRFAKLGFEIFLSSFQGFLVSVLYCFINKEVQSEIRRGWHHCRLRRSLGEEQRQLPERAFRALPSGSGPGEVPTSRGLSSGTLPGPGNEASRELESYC
Description: cell-based or functional assay.

The target of the next data set is human GLP-1 receptor (human, UniProt P43220 24-463). Description: cell-based or functional assay.
For data set [8], the target named is T4, human GIP receptor. Description: cell-based or functional assay. The source holds these as a separate data set.

≈ marks a conversion by molar mass, not a printed value. Where two headings read alike, the source gives them in different places. Numbered stars: 1 amine (or outer) side, 2 acyl side, 3 side chain; on linkers, the order of the positions; unused ones are H or OH. Square brackets hold non-standard residues; d marks the D form. Side chains are listed from the residue outwards. Ends that are not written are not given here. * marks the point of attachment. C18 diacid = O=C(O)CCCCCCCCCCCCCCCCC(=O)*; γGlu = O=C(O)[C@H](CCC(=O)[*:2])N[*:1]; AEEA = NCCOCCOCC(=O)O; Aib = CC(C)(N)C(=O)O Bounds are passed on as bounds.

T2 sequence (P43220 24-463): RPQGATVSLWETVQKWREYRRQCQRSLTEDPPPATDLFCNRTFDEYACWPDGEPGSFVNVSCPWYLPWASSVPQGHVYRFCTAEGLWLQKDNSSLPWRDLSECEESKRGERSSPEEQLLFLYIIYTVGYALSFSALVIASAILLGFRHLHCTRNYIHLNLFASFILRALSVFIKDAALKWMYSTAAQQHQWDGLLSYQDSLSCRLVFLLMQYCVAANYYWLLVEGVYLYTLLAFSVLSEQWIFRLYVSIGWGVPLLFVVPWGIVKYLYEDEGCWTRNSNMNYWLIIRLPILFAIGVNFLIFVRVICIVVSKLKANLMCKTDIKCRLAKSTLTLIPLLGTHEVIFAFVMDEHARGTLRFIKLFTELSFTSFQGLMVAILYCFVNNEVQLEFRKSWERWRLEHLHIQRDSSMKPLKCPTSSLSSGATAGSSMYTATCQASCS

Regarding `CC[C@H](C)[C@H](NC(=O)[C@H](CCCNC(=N)N)NC(=O)[C@H](CC(=O)O)NC(=O)[C@H](CCCCNC(=O)CN(C)C(=O)CN(C)C(=O)CN(C)C(=O)CC[C@H](NC(=O)CCCCCCCCCCCCCCCCC(=O)O)C(=O)O)NC(=O)C(C)(C)NC(=O)[C@@H](NC(=O)[C@H](CO)NC(=O)[C@H](CC(C)C)NC(=O)[C@H](CC(=O)O)NC(=O)[C@H](CO)NC(=O)[C@@H](NC(=O)[C@H](Cc1ccccc1)NC(=O)[C@@H](NC(=O)CNC(=O)[C@H](CCC(=O)O)NC(=O)C(C)(C)NC(=O)[C@@H](N)Cc1ccc(O)cc1)[C@@H](C)O)[C@@H](C)CC)[C@@H](C)CC)C(=O)N[C@@H](Cc1c[nH]cn1)C(=O)N[C@@H](CCC(N)=O)C(=O)NC(C)(C)C(=O)N[C@@H](CCC(=O)O)C(=O)N[C@@H](Cc1ccccc1)C(=O)N[C@H](C(=O)N[C@@H](CCC(=O)O)C(=O)N[C@@H](Cc1c[nH]c2ccccc12)C(=O)N[C@@H](CC(C)C)C(=O)N[C@@H](CC(C)C)C(=O)N[C@@H](C)C(=O)N[C@@H](CCC(N)=O)C(=O)N[C@@H](CCCNC(=N)N)C(=O)NCC(N)=O)[C@@H](C)CC` [SEQ ID NO: 8, H2N-Y-Aib-E-G-T-F-I-S-D-L-S-I-Aib-K[{N-MeGly}3-gGlu-C18OH]-D-R-I-H-Q-Aib-E-F-I-E-W-L-L-A-Q-R-G-NH2], the EC50 on human GIP receptor [1] (read-out: hGIPR EC50) was 0.7 nM; in data set [3] it was greater than 10 nM; in data set [6], 0.00745 nM. Moreover, on human GIP receptor [1] (read-out: hGIPR Emax), the maximal effect (Emax) is 128%. Moreover, the concentration for half-maximal inhibition (IC50) in [2] worked out at 139 nM; in data set [4] it was 0.1 nM. The solubility at 24 h in data set [5] (100 mM phosphate buffer pH 7.4 (solubility buffer system A), pH 7.4, Solubility buffer system A: 100 mM phosphate buffer pH 7.4) was greater than 10700 µg/mL; in data set [5] (pH 7.4, Solubility buffer system C: 100 mM phosphate buffer pH 7.4, 2.7 mg/ml m-cresol) it was 1800 µg/mL (≈ 423 µM).

B1: SEQ ID NO: 35 (peptide)
peptide: Y[Aib]EGTFISDLSI[Aib]K([AEEA-AEEA-γGlu-C18 diacid])DRIHQEEFIQWLLAQGPSSGAPPPS-NH2
modifications: N-terminus assumed
SMILES: CC[C@H](C)[C@H](NC(=O)[C@H](Cc1ccccc1)NC(=O)[C@H](CCC(=O)O)NC(=O)[C@H](CCC(=O)O)NC(=O)[C@H](CCC(N)=O)NC(=O)[C@H](Cc1c[nH]cn1)NC(=O)[C@@H](NC(=O)[C@H](CCCNC(=N)N)NC(=O)[C@H](CC(=O)O)NC(=O)[C@H](CCCCNC(=O)COCCOCCNC(=O)COCCOCCNC(=O)CC[C@H](NC(=O)CCCCCCCCCCCCCCCCC(=O)O)C(=O)O)NC(=O)C(C)(C)NC(=O)[C@@H](NC(=O)[C@H](CO)NC(=O)[C@H](CC(C)C)NC(=O)[C@H](CC(=O)O)NC(=O)[C@H](CO)NC(=O)[C@@H](NC(=O)[C@H](Cc1ccccc1)NC(=O)[C@@H](NC(=O)CNC(=O)[C@H](CCC(=O)O)NC(=O)C(C)(C)NC(=O)[C@@H](N)Cc1ccc(O)cc1)[C@@H](C)O)[C@@H](C)CC)[C@@H](C)CC)[C@@H](C)CC)C(=O)N[C@@H](CCC(N)=O)C(=O)N[C@@H](Cc1c[nH]c2ccccc12)C(=O)N[C@@H](CC(C)C)C(=O)N[C@@H](CC(C)C)C(=O)N[C@@H](C)C(=O)N[C@@H](CCC(N)=O)C(=O)NCC(=O)N1CCC[C@H]1C(=O)N[C@@H](CO)C(=O)N[C@@H](CO)C(=O)NCC(=O)N[C@@H](C)C(=O)N1CCC[C@H]1C(=O)N1CCC[C@H]1C(=O)N1CCC[C@H]1C(=O)N[C@@H](CO)C(N)=O
notes: Synthetic peptide, 39 residues (Gln at 24)
Consider B1, for which, in the data set with human GIP receptor [7], the “hGIPR EC50 (cAMP, human adipocytes)” value came out at 1.3 nM and the “hGIPR Emax (cAMP, human adipocytes)” value worked out at 120%. Besides, the “EC50 hGLP-1R 0.1% BSA (cAMP, HEK-293)” value with human GLP-1 receptor is greater than 10 nM. In addition, in the data set with human GIP receptor [8], the “EC50 hGIPR 0% HSA (cAMP, HEK-293)” value came out at 0.00024 nM and the “EC50 hGIPR 0.1% BSA (cAMP, HEK-293)” value was determined as 0.0107 nM.
